According to patent US8304410B2, “Pyrrole compounds as inhibitors of mycobacteria, synthesis thereof and intermediates thereto” (priority 2007, dated 2012):
In brackets after ≈: the same amount, converted by molar mass. Several values for one entry are separate records, joined by “and”; a condition that tells them apart may be missing. Equal entries are not always repeated. Where two headings read alike, the source gives them in different places.

Key:
M. smegmatis 103599 = test: Antimycobacterial activity, agar dilution MIC; assay type: cell-based
M. marinum 6423 = test: Antimycobacterial activity, agar dilution MIC; assay type: cell-based
[1] = tested on: intracellular M. tuberculosis; test: Inhibitory activity on intramacrophagic mycobacteria (J774.A1 murine macrophages); assay type: cell-based; details: after 6 days of treatment
M. tuberculosis 103471 = test: Antimycobacterial activity, twofold agar dilution MIC; assay type: cell-based; details: for M. tuberculosis 103471 MIC: Middlebrook 7H11 agar; for MIC: Mycobacterium tuberculosis, 103471, Middlebrook 7H11 agar
Procedure: (§1) Compounds 3a-h were preliminarily assayed against two freshly isolated clinical strains, M. fortuitum CA10 and M. tuberculosis B814, according to the dilution method in agar (Hawkins et al., 1991).
(§2) Growth media were Mueller-Hinton (Difco) containing 10% of OADC (oleic acid, albumine and dextrose complex) for M. fortuitum and Middlebrook 7H11 agar (Difco) with 10% of OADC for M. tuberculosis. Substances were tested at the single dose of 100 μg/mL. The active compounds were then assayed for inhibitory activity against a variety of mycobacterium strains in Middlebrok 7H11 agar by a standard twofold agar dilution method. The mycobacterium species used for biological tests were M. tuberculosis […], M. tuberculosis H37Rv, M. tuberculosis INH-R ATCC, M. tuberculosis RMP-R ATCC and, among atypical mycobacteria, M. smegmatis 103599, M. marinum 6423 and M. avium 103317 (from the Institute Pasteur collection). Plates were incubated at 37° C. for 3 or 28 days. BM212, INH, SM and RIF were used as reference compounds. After cultivation, MICs were read as minimal concentrations of drugs completely inhibiting visible growth of mycobacteria.

in vitro = details: African green monkey
M. avium 103317 = test: Antimycobacterial activity, agar dilution MIC; assay type: cell-based
M. tuberculosis H37Rv = test: Antimycobacterial activity, twofold agar dilution MIC; assay type: cell-based; details: Middlebrook 7H11 agar; for MIC: Mycobacterium tuberculosis, H37RV
Procedure: as §1, §2

atypical mycobacteria = test: Antimycobacterial activity toward atypical mycobacteria; assay type: cell-based; details: M. avium, M. marinum, M. smegmatis together
Procedure: as §2

Vero cells = details: MTT after 72 h
[2] = Mycolicibacterium smegmatis, 103599; read-out: M. smegmatis 103599 MIC
[3] = Mycobacterium marinum, 6423; read-out: M. marinum 6423 MIC
[4] = Mycobacterium avium, 103317; Table 7 head prints strain 103471; read-out: M. avium 103471 MIC
[5] = Mycobacterium avium, 103317; read-out: M. avium 103317 MIC
[6] = Table 7 head prints strain 103471

SMILES | MIC (M. smegmatis 103599; [2]) | MIC (M. marinum 6423; [3]) | M. tuberculosis 103471 MIC (M. tuberculosis 103471) | MIC (M. tuberculosis 103471) | CC50 (in vitro) | MIC (M. avium 103317; [4]) | MIC (M. avium 103317; [5]) | MIC (M. tuberculosis H37Rv) | M. tuberculosis H37Rv MIC (M. tuberculosis H37Rv) | CC50 VERO cells (Vero cells) | M. avium 103471 MIC (M. avium 103317; [6]) | further results
Cc1c(CN2CCN(C)CC2)cc(-c2ccc(Cl)cc2)n1-c1ccc(Cl)cc1 [BM 212, 1-{[1,5-bis(4-chlorophenyl)-2-methyl-1H-pyrrol-3-yl]methyl}-4-methylpiperazine] | 25 µg/mL (≈ 60.3 µM) | 100 µg/mL (≈ 241 µM) | 0.7 µg/mL | 0.7 µg/mL (≈ 1.69 µM) | 4 µg/mL (≈ 9.65 µM) | 0.4 µg/mL (≈ 0.965 µM) | 0.4 µg/mL (≈ 0.965 µM) | – | – | – | – | % of growth reduction respect to untreated controls, intracellular M. tuberculosis ([1]; concentration 0.125 μg/ml): 0%; % of growth reduction respect to untreated controls, intracellular M. tuberculosis ([1]; concentration 0.25 μg/ml): 29.41%; % of growth reduction respect to untreated controls, intracellular M. tuberculosis ([1]; concentration 0.5 μg/ml): 32.35%; % of growth reduction respect to untreated controls, intracellular M. tuberculosis ([1]; concentration 1 μg/ml): 51.76%
CSc1ccc(-c2cc(CN3CCSCC3)c(C)n2-c2ccc(F)cc2)cc1 [Compound 3a, N-(4-fluorophenyl)-2-methyl-3-thiomorpholinomethyl-5-(4-methylsulfanylphenyl)pyrrole] | 16 µg/mL (≈ 38.8 µM) | 8 µg/mL (≈ 19.4 µM) | 0.125 µg/mL and <0.125 µg/mL | < 0.125 µg/mL | > 128 µg/mL | 8 µg/mL (≈ 19.4 µM) | 8 µg/mL (≈ 19.4 µM) | 0.125 µg/mL (≈ 0.303 µM) | – | – | – | % of growth reduction respect to untreated controls, intracellular M. tuberculosis ([1]; concentration 0.125 μg/ml): 96.12%; % of growth reduction respect to untreated controls, intracellular M. tuberculosis ([1]; concentration 0.25 μg/ml): 99.02%; % of growth reduction respect to untreated controls, intracellular M. tuberculosis ([1]; concentration 0.5 μg/ml): 99.72%; % of growth reduction respect to untreated controls, intracellular M. tuberculosis ([1]; concentration 1 μg/ml): 99.81%; activity toward atypical mycobacteria (MIC range) (atypical mycobacteria): 8 to 16 µg/mL
CSc1ccc(-c2cc(CN3CCSCC3)c(C)n2-c2ccc(C)cc2)cc1 [Compound 3b] | – | – | 0.25 µg/mL | – | – | – | – | – | 0.25 µg/mL | 18.40 µg/mL (≈ 45 µM) | 16 µg/mL | –
CCc1ccc(-n2c(-c3ccc(SC)cc3)cc(CN3CCSCC3)c2C)cc1 [Compound 3c] | – | – | 0.25 µg/mL | – | – | – | – | – | 0.25 µg/mL | 17.18 µg/mL (≈ 40.6 µM) | >16 µg/mL | –
CCCc1ccc(-n2c(-c3ccc(SC)cc3)cc(CN3CCSCC3)c2C)cc1 [Compound 3d] | – | – | 0.125 µg/mL | – | – | – | – | – | 0.5 µg/mL | 25.25 µg/mL (≈ 57.8 µM) | 8 µg/mL | –
CSc1ccc(-c2cc(CN3CCSCC3)c(C)n2-c2ccc(C(C)C)cc2)cc1 [Compound 3e] | – | – | 0.125 µg/mL | – | – | – | – | – | 0.5 µg/mL | 37.58 µg/mL (≈ 86.1 µM) | 8 µg/mL | –
CSc1ccc(-c2cc(CN3CCN(C)CC3)c(C)n2-c2ccc(F)cc2)cc1 [Compound 3f] | – | – | 2 µg/mL | – | – | – | – | – | 2 µg/mL | 9.33 µg/mL (≈ 22.8 µM) | 4 µg/mL | –
CSc1ccc(-c2cc(CN3CCCCC3)c(C)n2-c2ccc(F)cc2)cc1 [Compound 3g] | – | – | 8 µg/mL | – | – | – | – | – | – | – | – | –
CSc1ccc(-c2cc(CN3CCOCC3)c(C)n2-c2ccc(F)cc2)cc1 [Compound 3h] | – | – | 0.25 µg/mL | – | – | – | – | – | 0.5 µg/mL | 44.34 µg/mL (≈ 112 µM) | 16 µg/mL | –
NNC(=O)c1ccncc1 [Isoniazid, INH, Isoniazid, reference compound] | – | – | – | 0.125 µg/mL (≈ 0.911 µM) | 32 µg/mL (≈ 233 µM) | – | – | 0.25 µg/mL (≈ 1.82 µM) | – | – | – | MIC (M. smegmatis 103599; Mycolicibacterium smegmatis, 103599, read-out: M. smegmatis 103599 MIC): 64 µg/mL (≈ 467 µM); MIC (M. marinum 6423; Mycobacterium marinum, 6423, read-out: M. marinum 6423 MIC): 16 µg/mL (≈ 117 µM); MIC (M. avium 103317; Mycobacterium avium, 103317, read-out: M. avium 103317 MIC): 32 µg/mL (≈ 233 µM); MIC (M. avium 103317; Mycobacterium avium, 103317, read-out: M. avium 103471 MIC): 32 µg/mL (≈ 233 µM)
CO[C@H]1/C=C/O[C@@]2(C)Oc3c(C)c(O)c4c(O)c(c(/C=N/N5CCN(C)CC5)c(O)c4c3C2=O)NC(=O)/C(C)=C\C=C\[C@H](C)[C@H](O)[C@@H](C)[C@@H](O)[C@@H](C)[C@H](OC(C)=O)[C@@H]1C [Rifampicin, RIF, Rifampicin] | 32 µg/mL (≈ 38.9 µM) | 0.6 µg/mL (≈ 0.729 µM) | – | 0.25 µg/mL (≈ 0.304 µM) | > 64 µg/mL | 0.3 µg/mL (≈ 0.365 µM) | 0.3 µg/mL (≈ 0.365 µM) | 0.8 µg/mL (≈ 0.972 µM) | – | – | – | % of growth reduction respect to untreated controls, intracellular M. tuberculosis ([1]; concentration 0.125 μg/ml): 96.59%; % of growth reduction respect to untreated controls, intracellular M. tuberculosis ([1]; concentration 0.25 μg/ml): 99.83%; % of growth reduction respect to untreated controls, intracellular M. tuberculosis ([1]; concentration 0.5 μg/ml): 99.93%; % of growth reduction respect to untreated controls, intracellular M. tuberculosis ([1]; concentration 1 μg/ml): 99.97%
[H]/N=C(/N)N[C@H]1[C@H](O)[C@@H](O)[C@H](O[C@@H]2O[C@@H](C)[C@](O)(C=O)[C@H]2O[C@@H]2O[C@@H](CO)[C@H](O)[C@@H](O)[C@@H]2NC)[C@@H](N/C(N)=N\[H])[C@@H]1O [Streptomycin, SM, Streptomycin, reference compound] | 8 µg/mL (≈ 13.8 µM) | 32 µg/mL (≈ 55 µM) | 0.3 µg/mL | 0.3 µg/mL (≈ 0.516 µM) | 64 µg/mL (≈ 110 µM) | 8 µg/mL (≈ 13.8 µM) | 8 µg/mL (≈ 13.8 µM) | 0.5 µg/mL (≈ 0.86 µM) | – | – | – | –
